“Also recorded” adds a separate entry of the source.
How the values were obtained:
ARPE-19 cells [1] = test: Immunoblotting analysis of treated ARPE-19 cells; format: cell-based
Description: Cells were treated with the autophagy inhibitor Bafilomycin A1 (Sigma, Saint Louis, MO, USA) at 75 nM or DUSP6 inhibitor BCI (Sigma, Saint Louis, MO, USA) at 1.25 μM or 2.5 μM for 6 h at 37° C. Proteins were collected after treatment for further study. C57BL/6N mice were sacrificed and their eyes were collected. The excess muscle tissue outside the sclera was removed and then a needle was used to make a hole in the cornea then remove the whole cornea. Next, we eliminated the lens and retina, and finally lysed the remaining tissue RIPA buffer (10× Merck Millipore, Temecula, CA, USA) containing with 1% protease inhibitor. Meanwhile, in vitro ARPE-19 cells were collected and lysed with RIPA buffer containing with 1% protease inhibitor. Subsequently, cell lysates were centrifuged for 10 min at 4° C. and the supernatants were collected. Next, the protein concentrations were measured via the BCA Protein Quantification Kit. An equal weight of total protein was separated by electrophoresis on SDS/PAGE. After the proteins were transferred onto polyvinylidene difluoride (PVDF) membranes (Millipore, Bedford, MA, USA), the membranes were incubated with blocking buffer (1×TBST and 5% skim milk) for 1 h at room temperature. After the blocking step, the membranes were incubated with the following primary antibodies at 4° C. overnight: DUSP6 (Abcam, Cambridge, UK), Phospho-ERK1/2 (Cell Signaling, Danvers, MA, USA), ERK1/2 (Cell Signaling, Danvers, MA, USA), LC3B (Novus, Centennial, CO, USA), SQSTM1/p62 (Abcam, Cambridge, UK), LAMP2 (Abcam, Cambridge, UK), Beclin-1 (Cell Signaling, Danvers, MA, USA), and Bactin (Sigma, Saint Louis, MO, USA). Next, membranes were washed three times with TBST and incubated with HRP-conjugated secondary antibodies including Goat anti-mouse IgG (Invitrogen, Carlsbad, CA, USA) and Goat anti-rabbit IgG (Invitrogen, Carlsbad, CA, USA) for 1 h at RT. The antigen-antibody complexes were detected by an enhanced chemiluminescence (ECL) substrate kit (Bioman, Millipore, Bedford, MA, USA). Bands were analyzed and quantified by the ImageJ (NIH, Bethesda, MD, USA) analysis software.

ARPE-19 cells [2] = test: Immunocytochemistry / immunofluorescence staining of ARPE-19 cells; format: cell-based
Description: In vitro, the cells were seeded in 24-well plates at a density of 2×10^5 per well and incubated at 37° C. with 5% CO2 for 24 h. […] After rinsing three times with PBS, the cells were permeabilized and blocked with a blocking solution (0.3% BSA and 0.1% Triton X-100 in PBS) at room temperature for 1 h. After blocking, cells were incubated with primary antibodies overnight at 4° C. The primary antibodies include DUSP6 (Abcam, Cambridge, UK), Phospho-ERK1/2 (Cell Signaling, Danvers, MA, USA), LC3B (Novus, Centennial, CO, USA), and SQSTM1/p62 (Abcam, Cambridge, UK). After incubation, cells were washed three times with PBST (0.1% Triton X-100 in PBS). Secondary antibodies (1:700) were applied for 3 h at room temperature. The secondary antibodies include IgG Alexa 488 goat anti-rabbit IgG and Alexa 594 goat anti-mouse IgG. Nuclei were stained with DAPI (1:1000) for 10 min at 4° C. and slides were observed by a light microscope (Olympus America, Melville, NY, USA). In vivo, the sample slices were pretreated with bleaching solution (1% NaH2PO4 and 2.5% H2O2) overnight at room temperature. Next, the primary antibodies, including DUSP6, Phospho-ERK1/2, LC3B, SQSTM1/p62, and RPE65, were incubated with the sample slices overnight at 4° C. After incubation, the samples were washed three times with PBST. Tests with secondary antibodies (1:700) were conducted for 1 h at room temperature. The secondary antibodies included IgG Alexa 488 goat anti-rabbit IgG and Alexa 594 goat anti-mouse IgG. After treating them with mounting solution, the slides were observed by a fluorescence microscope (Olympus America, Melville, NY, USA).

ARPE-19 cells [3] = test: qRT-PCR of p62 mRNA in ARPE-19 cells; format: cell-based; conditions: ARPE-19 co-treated with BCI and NaIO3 for 6 hours
Description: The cDNA was diluted to 200 ng/μL with sterile water and mixed with SYBR PCR Master Mix and primers. Amplification reaction was performed in a thermal cycler according to the manufacturer's instructions. mRNA abundance was quantified using the threshold cycle method. The mRNA expression of GAPDH was used as an internal control for normalization.

ARPE-19 cells [4] = test: Live imaging of GFP-LC3-RFP-LC3AG reporter in ARPE-19 cells; format: cell-based; conditions: ARPE-19, BCI under NaIO3-induced oxidative stress
Description: Furthermore, to estimate the autophagic flux in BCI-treated ARPE-19 cells, we introduced the GFP-LC3-RFP-LC3AG gene into ARPE-19 cells and monitored live images taken after BCI treatment.

C57BL/6N mice = test: DUSP6 inhibitor (BCI) treatment in NaIO3-treated mice; format: in vivo
Description: Retina samples were fixed with 4% paraformaldehyde (Sigma, Saint Louis, MO, USA) overnight, followed by 1×PBS. The methodology used for fixation, dehydration, clearing, infiltration, and embedding was developed according to that of Bio-Check Laboratories. […] The morphology of the retina was observed using a light microscope (Olympus America, Melville, NY, USA). Next, the thicknesses of the retina, defined as the distance between the inner limiting membrane, Bruch's membrane, and the outer nuclear layer (ONL), were measured by Image J (NIH, Bethesda, Maryland, USA). In vitro, the cells were seeded in 24-well plates at a density of 2×10^5 per well and incubated at 37° C. with 5% CO2 for 24 h. […] After rinsing three times with PBS, the cells were permeabilized and blocked with a blocking solution (0.3% BSA and 0.1% Triton X-100 in PBS) at room temperature for 1 h. After blocking, cells were incubated with primary antibodies overnight at 4° C. The primary antibodies include DUSP6 (Abcam, Cambridge, UK), Phospho-ERK1/2 (Cell Signaling, Danvers, MA, USA), LC3B (Novus, Centennial, CO, USA), and SQSTM1/p62 (Abcam, Cambridge, UK). After incubation, cells were washed three times with PBST (0.1% Triton X-100 in PBS). Secondary antibodies (1:700) were applied for 3 h at room temperature. The secondary antibodies include IgG Alexa 488 goat anti-rabbit IgG and Alexa 594 goat anti-mouse IgG. Nuclei were stained with DAPI (1:1000) for 10 min at 4° C. and slides were observed by a light microscope (Olympus America, Melville, NY, USA). In vivo, the sample slices were pretreated with bleaching solution (1% NaH2PO4 and 2.5% H2O2) overnight at room temperature. Next, the primary antibodies, including DUSP6, Phospho-ERK1/2, LC3B, SQSTM1/p62, and RPE65, were incubated with the sample slices overnight at 4° C. After incubation, the samples were washed three times with PBST. Tests with secondary antibodies (1:700) were conducted for 1 h at room temperature. The secondary antibodies included IgG Alexa 488 goat anti-rabbit IgG and Alexa 594 goat anti-mouse IgG. After treating them with mounting solution, the slides were observed by a fluorescence microscope (Olympus America, Melville, NY, USA). […] The structure of the retina was analyzed by real-time images and H & E staining. Proteins were collected from retina for further study.

[5] = NaIO3-treated ARPE-19 cells with Baf-A1 75 nM
[6] = NaIO3 30 mg/kg i.p. then BCI 0.5 mg/kg intravitreal

Structure (SMILES)	LC3B-II expression (ARPE-19 cells [1]; [5])	p62 expression levels (ARPE-19 cells [1]; [5])	p-ERK/ERK ratio (ERK activity) (ARPE-19 cells [1]; NaIO3-treated ARPE-19, BCI 1.25 and 2.5 μM, 6 h)	autophagic markers (immunoblotting) (ARPE-19 cells [1]; NaIO3-treated ARPE-19, BCI 1.25 and 2.5 μM, hydrochloride)	autophagosomes (fluorescence images) (ARPE-19 cells [2]; ARPE-19, BCI 1.25 μM, oxidative conditions)	speckles of p-ERK (ARPE-19 cells [2]; ARPE-19, BCI with or without NaIO3)	perinuclear p62 punctate (ARPE-19 cells [2]; ARPE-19 co-treated with NaIO3 and BCI)	cell-cell junction (tight junction marker ZO-1) (ARPE-19 cells [2]; RPE cells, NaIO3 vs control, BCI co-treatment)	p62 mRNA level (ARPE-19 cells [3])	GFP / RFP LC3 signal (late-stage autophagy) (ARPE-19 cells [4])	ONL disorganization (H & E) (C57BL/6N mice; BCI 0.5 mg/kg intravitreal in presence of NaIO3-induced oxidative stress)	ONL thickness (C57BL/6N mice; BCI group vs NaIO3 group)	melanin deposition on the retina (C57BL/6N mice; BCI group vs mice treated with NaIO3 only)	co-localization of LC3B and p62 between the ONL and RPE layers (C57BL/6N mice; [6])	phosphorylated ERK speckles around the ONL and RPE layers (C57BL/6N mice; [6])	accumulation of p62 in mouse retinas (C57BL/6N mice; mouse retinas treated with BCI)
CO/C1=C\C(C)=C\[C@@H](C)[C@@H](O)[C@@H](C)C/C(C)=C/C=C/[C@H](OC)[C@@H]([C@@H](C)[C@@H](O)[C@H](C)[C@@]2(O)C[C@@H](O)[C@H](C)[C@@H](C(C)C)O2)OC1=O [Baf-A1, Bafilomycin A1]	increase in LC3B-II expression in a dose-dependent manner	remained unchanged	–	–	–	–	–	–	–	–	–	–	–	–	–	–
Cl.O=C1/C(=C/c2ccccc2)C(NC2CCCCC2)c2ccccc21 (mixture of isomers) [BCI, (E/Z)-BCI hydrochloride]	–	–	significantly increased in NaIO3-treated cells after BCI treatment in a dose-dependent manner	upregulation of autophagic markers upon BCI treatment in a dose-dependent manner; also recorded: also upregulated	aggregation of autophagosomes	increased after BCI treatment, despite the presence or absence of NaIO3	significantly upregulated	rescue the cell-cell junction	upregulated	GFP-positive signal being shifted to an RFP-positive signal	alleviated	restored the ONL thickness	significantly reduced	excessive co-localization	dramatically enhanced	significantly decreased
